Measurements taken from patent publication US7718804B2, “Quaternary nitrogen heterocyclic compounds for detecting aqueous monosaccharides in physiological fluids” (University of Maryland Biotechnology Institute, priority 2003, dated 2010).

Key:
[1] = in water; cited from earlier work
[2] = Fluoride sensing by fluorescence
Description: Moreover, because the quenching of fluorescence is not a selective process, any fluorophore quenched by chloride is also quenched by bromide and iodide to an even more substantial extent, allowing for the determination of bromide or iodide concentrations as well. Generally, fluorophores that are quenched by chloride are not quenched by fluoride, which is often attributed to the “heavy-atom effect” (Geddes, C. D., Meas. Sci. Technol., 12, R53 (2001); Lakowicz, J. R., Principles of Fluorescence Spectroscopy, 2nd ed., Kluwer/Academic Plenum Publishers, New York, 1997).

[3] = Spectral properties in water (absorption, emission, quantum yield, lifetime); type: physicochemical; settings: for φf (quantum yield): relative to SPQ (φf=0.53 in water)
Description: (§1) All steady state fluorescence measurements were performed in a 4×1×1 cm fluorometric plastic cuvette, using a Varian Cary Eclipse fluorometer, and all absorption measurements were performed using a Varian UV/VIS 50 spectrophotometer.
Time-solved intensity decays were measured using reverse start-stop time-correlated single-photon timing (TCSPC) with a Becker and Hickl Gmbh 630 SPC PC card and unamplified MCP-PMT. Vertically polarized excitation at ˜372 nm was obtained using a pulsed LED source (1 MHz repetition rate) and a dichroic sheet polarizer. The instrumental response function was ˜1.1 ns fwhm. The emission was collected at the magic angle (54.7°) using a long pass filter (Edmund Scientific) which cut-off the excitation wavelengths.
The intensity decays were analyzed in terms of the multi-exponential model:
[formula] where αi are the amplitudes and τi are the decay times, Σαi=1.0. The fractional contribution of each component to the steady-state intensity is given by:
The mean lifetime of the excited state is given by:
The values of αi and τi were determined by non-linear least squares impulse reconvolution with a goodness-of-fit χ^2R criterion.
A representative absorption and emission spectra for o-BMQBA in water is shown in FIG. 3B, which corresponds to all three isomers and BMQ. BMQBA has a strong absorption band at ˜320 nm, which can be assigned to n→π* transitions, and an excitation band at ˜427 nm, and as such, has a large Stokes shift of about 100 nm, which is ideal for fluorescence sensing. The quantum yield values of the BMQBA compounds in water relative to N-(3-sulfopropyl)-6-methoxyquinolinium (SPQ) (φf=0.53 in water) are shown in Table 1. The low quantum yields and relatively short lifetime of the BMQBA and BMQ molecules can be attributed to a photo-induced electron transfer, whereby the phenyl ring acts as the donor and the quinolinium moiety acts as the acceptor.
A representative absorption and emission spectra for o-BMOQBA in water is shown in FIG. 3A, which corresponds to all three isomers and BMOQ. BMOQBA has a strong absorption band at ˜345 nm, which can be assigned to n→π* transitions, and an excitation band at ˜450 nm, and as such, has a large Stokes shift of about 100 nm, which is ideal for fluorescence sensing. The quantum yield values of the BMOQBA compounds in water relative to N-(3-sulfopropyl)-6-methoxyquinolinium (SPQ) (φf=0.53 in water) are shown in Table 2. […] We can only speculate as to the quantum yield differences between the m-BMOQBA and p-BMOQBA compounds, which may be attributed to through-bond and through-space mechanisms.

[4] = Fluorescence intensity response to fructose in solution
Description: as §1
The emission spectra of o-BMQBA in the presence of varying concentrations of fructose and glucose are shown in FIG. 4A and FIG. 4B, respectively. It can be seen that the fluorescence intensity of o-BMQBA in pH 7.5 phosphate buffer is inversely proportional to the glucose and fructose concentrations. […] A plot of the intensity ratio, I′/I, at λ=427 nm, where I′ and I represent the fluorescence intensities in the absence and presence of sugar, respectively, is shown in FIG. 4C. […] It is noted that the concentration of fructose in blood is ˜10 times lower than glucose, a relationship which is also thought to occur in tears (N. Dicesare, et. al., J. Bio. Med. Opt., 7(4), 538-545 (2002)).
The intensity ratio for o-BMQBA in buffered media (pH 5-8) at various glucose concentrations is shown in FIG. 8A, wherein I′ corresponds to the intensity in the absence of glucose and I corresponds to the intensity at the specified glucose concentration. In addition, the intensity ratio for o-BMQBA in buffered media (pH 5-8) at low glucose concentrations, typical of those found in tears, is shown in FIG. 8B. Correspondingly, the intensity ratio for o-BMQBA in buffered media (pH 5-8) at various fructose concentrations is shown in FIGS. 9A and 9B.
Because physiological fluids contain chloride ions, which are well known quenchers of quinolinium fluorescence (Geddes, C. D., Meas. Sci. Technol., 12(9), R53-R88 (2001); Geddes, C. D., et al., J. Heterocyclic Chem., 36(4), 949-951 (1999); Geddes, C. D., et al., Anal. Biochem., 293(1), 60-66 (2001)), the fluorescence intensity and intensity ratios of o-BMQBA in pH 7.5 buffer having 100 mM NaCl with varying quantities of fructose or glucose was measured and shown in FIGS. 10 and 11, respectively, where I′ corresponds to the intensity in the absence of fructose and I corresponds to the intensity at the specified fructose concentration. It can be seen that although chloride quenched the intensity of the emission in the presence of fructose, the intensity ratio change for fructose is still significant, amounting to a 4-fold decrease in fluorescence intensity at 60 mM fructose (see FIG. 10B). The quenching effect was less significant at lower concentrations of fructose (see FIG. 10C) and for glucose concentrations, both high and low (see FIGS. 11B and 11C). This minimal quenching effect for BMQBA is supported by the calculated Stern-Volmer constants, KSV, for the BMQBA compounds in water, which were determined to be 44.0 M^−1, 20.0 M^−1, 17.0 M^−1 and 35.0 M^−1 for o-BMQBA, m-BMQBA, p-BMQBA and BMQ, respectively. These are small quenching constants that are readily accounted for using simple corrections in the fluorescence signal, as readily determined by one skilled in the art of fluorescence.
(§2) The intensity ratio at λ=450 nm for o-BMOQBA in buffered media (pH 5-8) at various glucose concentrations is shown in FIG. 16A, wherein I′ corresponds to the intensity in the absence of glucose and I corresponds to the intensity at the specified glucose concentration. In addition, the intensity ratio for o-BMOQBA in buffered media (pH 5-8) at low glucose concentrations, typical of those found in tears, is shown in FIG. 16B. Correspondingly, the intensity ratio for o-BMOQBA in buffered media (pH 5-8) at various fructose concentrations is shown in FIGS. 17A and 17B.
Each BAF was tested to determine the usefulness of these BAFs with regard to tear glucose sensing in a contact lens. Towards that end, both solution-based and doped contact lens-based measurements, the methods of which are described above, were performed and subsequently compared. […]

[5] = Fluorescence intensity response to glucose in solution; settings: 60 mM glucose, pH 8.0 buffer/methanol (2:1)
Description: All steady state fluorescence measurements were performed in a 4×1×1 cm fluorometric plastic cuvette, using a Varian Cary Eclipse fluorometer, and all absorption measurements were performed using a Varian UV/VIS 50 spectrophotometer. […]
The emission spectra of o-BMOQBA in the presence of varying concentrations of glucose and fructose are shown in FIG. 12A and FIG. 12B, respectively. It can be seen that the fluorescence intensity of o-BMOQBA in pH 7.5 phosphate buffer is inversely proportional to the glucose and fructose concentrations. […] A plot of the intensity ratio, I′/I, at λ=450 nm, where I′ and I represent the fluorescence intensities in the absence and presence of sugar, respectively, is shown in FIG. 12C. […] Referring to FIG. 12C, there is a 2.8-fold change in intensity by the addition of 60 mM sugar.
as §2
Each BAF was tested to determine the usefulness of these BAFs with regard to tear glucose sensing in a contact lens. Towards that end, both solution-based and doped contact lens-based measurements, the methods of which are described above, were performed and subsequently compared.

For `COc1ccc2c(ccc[n+]2CCCS(=O)(=O)O)c1` [SPQ, N-(3-sulfopropyl)-6-methoxyquinolinium], which “φf (quantum yield) of reference standard” value [1] is on record?
The value was 0.53.

For `Nc1ccc2c(ccc[n+]2Cc2ccccc2B(O)O)c1.[Br-]` [BAQBA, N-(2-boronobenzyl)-6-aminoquinolinium bromide], which detectable fluoride concentration [2] is on record?
The detectable fluoride concentration was “below 50 mM”.

Which “λabs (max)” value [3] does the source give for `Cc1ccc2c(ccc[n+]2Cc2ccccc2)c1` [BMQ, N-benzyl-6-methylquinolinium bromide] here?
Its value is 322 nm.

What about the “λem (max)” value [3] of the same molecule?
The value was 427 nm.

What about the “τf (mean lifetime)” value [3] of the same molecule?
The value was 2.59 ns.

What about the “φf (quantum yield)” value [3] of the same molecule?
Its value is 0.045.

For `COc1ccc2c(ccc[n+]2Cc2ccccc2)c1` [BMOQ, N-benzyl-6-methoxyquinolinium bromide], which “λem (max)” value [3] is on record?
The value was 453 nm.

And the “τf (mean lifetime)” value [3]?
The value was 27.3 ns.

What about the “φf (quantum yield)” value [3] of the same molecule?
Its value is 0.54.

With `CN(C)c1ccc(/C=C/C=C/C(=O)c2ccc(B(O)O)cc2)cc1` [Chalc 2, 5-[4′-(dimethylamino)phenyl]-1-(4′-boronophenyl)-pent-2,4-dien-1-one] as the molecule, how does the “increase in fluorescence emission” value ([4]; 100 mM fructose, pH 8.0, solution) read?
The value was 3 fold.

Which “ratiometric change in intensity” value [5] does the source give for `CN(C)c1ccc(/C=C/c2ccc(B(O)O)cc2)cc1` [DSTBA, 4′-dimethylaminostilbene-4-boronic acid] here?
Its value is 2 fold.

And the “ratiometric change in intensity” value ([4]; 60 mM fructose, pH 8.0 buffer/methanol (2:1))?
The value was 4.5 fold.

What about the “blue shift of emission spectra” value ([4]; fructose 0 mM→100 mM, pH 8.0 buffer/methanol (2:1)) of the same molecule?
The value was “about 30 nm”.

For `N#Cc1ccc(/C=C/c2ccc(B(O)O)cc2)cc1` [CSTBA, 4′-cyanostilbene-4-boronic acid], which “red shift of emission spectra” value ([4]; increasing fructose, pH 8.0 buffer/methanol (2:1)) is on record?
Its value is “about 25 nm”.
